# According to patent publication US12661410B2, “Compounds for targeted degradation of RET” (C4 Therapeutics, Inc., priority 2020, dated 2026):
# Numbering of substitutions follows the chain as printed. Like-named read-outs stand apart in the source and are kept apart here.
# Columns and labels:
# RET(KD: 658-1114 G810R) = target: T1, RET(KD: 658-1114 G810R) (Homo sapiens, UniProt P07949, G810R); assay: HiBiT-Degradation, RET G810R degradation assay (Nano-Glo HiBiT Lytic), 293T.165 cells; type: cell-based; conditions: for Emax / DC50: 6.0 hours
# T1 construct: 658-1114; expressed in transfected cells; host or cells: 293T.165 (293T cells, generated in-house)
# T1 sequence (P07949 658-1114 G810R): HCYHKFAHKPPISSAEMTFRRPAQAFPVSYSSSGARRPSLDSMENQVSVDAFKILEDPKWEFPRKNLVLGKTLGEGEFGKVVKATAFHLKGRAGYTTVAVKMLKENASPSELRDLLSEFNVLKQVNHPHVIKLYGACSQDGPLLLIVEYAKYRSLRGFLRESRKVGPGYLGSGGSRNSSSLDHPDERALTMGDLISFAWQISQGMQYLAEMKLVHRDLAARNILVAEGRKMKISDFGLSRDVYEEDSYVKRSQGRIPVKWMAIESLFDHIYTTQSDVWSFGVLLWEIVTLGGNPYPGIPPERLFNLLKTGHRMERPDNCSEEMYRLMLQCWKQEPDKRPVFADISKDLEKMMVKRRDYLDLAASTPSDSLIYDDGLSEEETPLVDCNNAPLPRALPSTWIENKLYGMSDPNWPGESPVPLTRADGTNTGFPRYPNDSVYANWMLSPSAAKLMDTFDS
# Description: (§1) Dulbecco's modified Eagle medium (DMEM) no-phenol red media and fetal bovine serum (FBS) were purchased from Gibco (Grand Island, NY, USA). Cell lines ectopically expressing wild-type or G810R RET kinase domain fused with a HiBiT tag were generated in-house (293T. 144 and 293T. 165, respectively). Cell culture flasks and 384-well microplates were acquired from VWR (Radnor, PA, USA). The Nano-Glo® HiBiT Lytic Assay System was purchased from Promega (Madison, WI, USA).
# (§2) RET wild-type (WT) and G810R degradation were assessed using the Nano-Glo® HiBiT Lytic assay (Promega, Medison, WI, USA). To determine the effect of degraders on protein levels, cells were plated in 384-well plates and treated with compounds of interest in duplicates for 6 hours using an 11-point half-log dilution series, with the highest dose set at 10 μM. Cell lysis and addition of the Nano-Glo® HiBiT Lytic Assay reagents was then performed. Luminescence signal was measured using an EnVision™ Multimode plate reader (Perkin Elmer, Santa Clara, CA, USA). The half-maximal degradation concentration (DC50) and % remaining protein (Emax) was then derived from the dose-response curves.
# RET (658-1114) = target: T2, RET (658-1114) (Homo sapiens, UniProt P07949); assay: HiBiT-Degradation, RET wild-type degradation assay (Nano-Glo HiBiT Lytic), 293T.144 cells; type: cell-based; conditions: for Emax / DC50: 6.0 hours
# T2 construct: 658-1114; expressed in transfected cells; host or cells: 293T.144 (293T cells, generated in-house)
# T2 sequence (P07949 658-1114): T1 sequence (P07949 658-1114 G810R) with R153G
# Description: as §1, §2
# [1] = % remaining protein, read-out: 293T.165 RET(KD: 658-1114 G810R) 6.0 hours (Emax)
# [2] = half-maximal degradation concentration, read-out: 293T.165 RET(KD: 658-1114 G810R) 6.0 hours (DC50)
# [3] = % remaining protein, read-out: 293T.144 RET (658-1114) 6.0 hours (Emax)
# [4] = half-maximal degradation concentration, read-out: 293T.144 RET (658-1114) 6.0 hours (DC50)
# [5] = RET G810R, read-out: HiBiT-Degradation 293T.165 RET(KD: 658-1114 G810R) 6.0 hours (DC50)
# [6] = RET G810R, read-out: HiBiT-Degradation 293T.165 RET(KD: 658-1114 G810R) 6.0 hours (Emax)
# [7] = RET wild-type, read-out: HiBiT-Degradation 293T.144 RET (658-1114) 6.0 hours (DC50)
# [8] = RET wild-type, read-out: HiBiT-Degradation 293T.144 RET (658-1114) 6.0 hours (Emax)
293T.165 RET(KD: 658-1114 G810R) 6.0 hours (IP) [nM] (RET(KD: 658-1114 G810R)),Emax (RET(KD: 658-1114 G810R); [1]) [%],DC50 (RET(KD: 658-1114 G810R); [2]) [nM],293T.144 RET (658-1114) 6.0 hours (IP) [nM] (RET (658-1114)),Emax (RET (658-1114); [3]) [%],DC50 (RET (658-1114); [4]) [nM],293T.165 RET(KD: 658-1114 G810R) 6.0 hours (Emax) (RET(KD: 658-1114 G810R); HiBiT-Degradation),293T.165 RET(KD: 658-1114 G810R) 6.0 hours (IP) [nM] (RET(KD: 658-1114 G810R); HiBiT-Degradation),"DC50 (RET(KD: 658-1114 G810R); HiBiT-Degradation, read-out: 293T.165 RET(KD: 658-1114 G810R) 6.0 hours (DC50)) [nM]",293T.144 RET (658-1114) 6.0 hours (IP) [nM] (RET (658-1114); HiBiT-Degradation),"DC50 (RET (658-1114); HiBiT-Degradation, read-out: 293T.144 RET (658-1114) 6.0 hours (DC50)) [nM]","Emax (RET (658-1114); HiBiT-Degradation, read-out: 293T.144 RET (658-1114) 6.0 hours (Emax)) [%]",HiBiT-Degradation 293T.165 RET(KD: 658-1114 G810R) 6.0 hours (IP) [nM] (RET(KD: 658-1114 G810R); RET G810R),DC50 (RET(KD: 658-1114 G810R); [5]) [nM],Emax (RET(KD: 658-1114 G810R); [6]) [%],HiBiT-Degradation 293T.144 RET (658-1114) 6.0 hours (IP) [nM] (RET (658-1114); RET wild-type),DC50 (RET (658-1114); [7]) [nM],Emax (RET (658-1114); [8]) [%],Compound
–,< 30,< 50,–,–,–,++++ (< 30% = ++++),++++ (< 50 nM = ++++),< 50,++++ (< 50 nM = ++++),< 50,< 30,–,–,–,–,–,–,"CCC1(C(=O)NC(C)C)CCN(c2ccc(-c3nc(-c4cnn(C5CCN(C(=O)CC6(O)CCN(c7ccc(N[C@@H]8CCC(=O)NC8=O)cc7Cl)CC6)CC5)c4)cn4ncc(C#N)c34)cn2)CC1 (single isomer, unassigned) [Compound 11]"
–,< 30,< 50,–,–,–,–,–,–,–,–,–,++++ (< 50 nM = ++++),< 50,< 30,++++ (< 50 nM = ++++),< 50,< 30,"CCC1(C(=O)NC(C)C)CCN(c2ccc(-c3nc(-c4cnn(C5CCN(C(=O)CC6(O)CCN(c7ccc(N[C@@H]8CCC(=O)NC8=O)cc7F)CC6)CC5)c4)cn4ncc(C#N)c34)cn2)CC1 (single isomer, unassigned) [Compound 79]"
–,< 50,< 50,–,–,–,–,–,–,–,–,–,++++ (< 50 nM = ++++),< 50,< 50,++++ (< 50 nM = ++++),< 50,< 30,"CCC1(C(=O)NC(C)C)CCN(c2ccc(-c3nc(-c4cnn(C5CCN(C(=O)CC6(O)CCN(c7ccc(N[C@H]8CCC(=O)NC8=O)cc7F)CC6)CC5)c4)cn4ncc(C#N)c34)cn2)CC1 (single isomer, unassigned) [Compound 80]"
–,< 30,–,–,–,–,–,–,–,–,–,–,++++ (< 50 nM = ++++),–,< 30,++++ (< 50 nM = ++++),< 50,< 30,"CCC1(C(=O)NC(C)C)CCN(c2ccc(-c3cc(-c4cnn([C@H]5CC[C@H](N6CCC(c7ccc(NC8CCC(=O)NC8=O)cc7F)CC6)CC5)c4)cn4ncc(C#N)c34)cn2)CC1 (single isomer, unassigned) [Compound 87, 1-(5-(3-cyano-6-(1-((1r, 4r)-4-(4-(4-((2,6-dioxopiperidin-3-yl)amino)-2-fluorophenyl)piperidin-1-yl)cyclohexyl)-1H-pyrazol-4-yl)pyrazolo[1,5-a]pyridin-4-yl)pyridin-2-yl)-4-ethyl-N-isopropylpiperidine-4-carboxamide]"
++++ (<50 nM = ++++),< 30,< 50,++++ (<50 nM = ++++),< 30,< 50,–,–,–,–,–,–,–,–,–,–,–,–,"CCC1(C(=O)NC(C)C)CCN(c2ccc(-c3nc(-c4cnn([C@H]5CC[C@H](N6CCC(c7ccc(N[C@H]8CCC(=O)NC8=O)cc7F)CC6)CC5)c4)cn4ncc(C#N)c34)cn2)CC1 (single isomer, unassigned) [Compound 123]"
++++ (<50 nM = ++++),< 30,< 50,++++ (<50 nM = ++++),< 30,< 50,–,–,–,–,–,–,–,–,–,–,–,–,"CCC1(C(=O)NC(C)C)CCN(c2ccc(-c3nc(-c4cnn([C@H]5CC[C@H](N6CCC(c7ccc(N[C@@H]8CCC(=O)NC8=O)cc7F)CC6)CC5)c4)cn4ncc(C#N)c34)cn2)CC1 (single isomer, unassigned) [Compound 124]"
++++ (<50 nM = ++++),< 30,< 50,++++ (<50 nM = ++++),< 30,< 50,–,–,–,–,–,–,–,–,–,–,–,–,"CCC1(NC(=O)C(C)C)CCN(c2ccc(-c3nc(-c4cnn([C@H]5CC[C@@H](N6CCN(c7ccc8c(N9CCC(=O)NC9=O)nn(C)c8c7F)CC6)CC5)c4)cn4ncc(C#N)c34)cn2)CC1 (single isomer, unassigned) [Compound 125, N-(1-(5-(3-Cyano-6-(1-((1s, 4s)-4-(4-(3-(2,4-dioxotetrahydropyrimidin-1(2H)-yl)-7-fluoro-1-methyl-1H-indazol-6-yl)piperazin-1-yl)cyclohexyl)-1H-pyrazol-4-yl)pyrazolo[1,5-a]pyrazin-4-yl)pyridin-2-yl)-4-ethylpiperidin-4-yl)isobutyramide]"
++++ (<50 nM = ++++),< 30,< 50,++++ (<50 nM = ++++),< 30,< 50,–,–,–,–,–,–,–,–,–,–,–,–,"CCC1(C(=O)NC2CCC2)CCN(c2ccc(-c3nc(-c4cnn([C@H]5CC[C@H](N6CCC(c7ccc(NC8CCC(=O)NC8=O)cc7)CC6)CC5)c4)cn4ncc(C#N)c34)cn2)CC1 (single isomer, unassigned) [Compound 126, 1-(5-(3-cyano-6-(1-((1r, 4r)-4-(4-(4-((2,6-dioxopiperidin-3-yl)amino)phenyl)piperidin-1-yl)cyclohexyl)-1H-pyrazol-4-yl)pyrazolo[1,5-a]pyrazin-4-yl)pyridin-2-yl)-N-cyclobutyl-4-ethylpiperidine-4-carboxamide]"

Compound,293T.165 RET(KD: 658-1114 G810R) 6.0 hours (IP) [nM] (RET(KD: 658-1114 G810R)),Emax (RET(KD: 658-1114 G810R); [1]) [%],DC50 (RET(KD: 658-1114 G810R); [2]) [nM],293T.144 RET (658-1114) 6.0 hours (IP) [nM] (RET (658-1114)),Emax (RET (658-1114); [3]) [%],DC50 (RET (658-1114); [4]) [nM],293T.165 RET(KD: 658-1114 G810R) 6.0 hours (Emax) (RET(KD: 658-1114 G810R); HiBiT-Degradation),293T.165 RET(KD: 658-1114 G810R) 6.0 hours (IP) [nM] (RET(KD: 658-1114 G810R); HiBiT-Degradation),"DC50 (RET(KD: 658-1114 G810R); HiBiT-Degradation, read-out: 293T.165 RET(KD: 658-1114 G810R) 6.0 hours (DC50)) [nM]",293T.144 RET (658-1114) 6.0 hours (IP) [nM] (RET (658-1114); HiBiT-Degradation),"DC50 (RET (658-1114); HiBiT-Degradation, read-out: 293T.144 RET (658-1114) 6.0 hours (DC50)) [nM]","Emax (RET (658-1114); HiBiT-Degradation, read-out: 293T.144 RET (658-1114) 6.0 hours (Emax)) [%]",HiBiT-Degradation 293T.165 RET(KD: 658-1114 G810R) 6.0 hours (IP) [nM] (RET(KD: 658-1114 G810R); RET G810R),DC50 (RET(KD: 658-1114 G810R); [5]) [nM],Emax (RET(KD: 658-1114 G810R); [6]) [%],HiBiT-Degradation 293T.144 RET (658-1114) 6.0 hours (IP) [nM] (RET (658-1114); RET wild-type),DC50 (RET (658-1114); [7]) [nM],Emax (RET (658-1114); [8]) [%]
"COc1ccc(CN2C3CC2CN(c2ccc(-c4nc(-c5cnn([C@H]6CC[C@H](N7CCN(c8cc(OC)c(NC9CCC(=O)NC9=O)cc8F)CC7)CC6)c5)cn5ncc(C#N)c45)cn2)C3)cn1 (relative stereo) [Compound 167, 6-[1-[4-[4-[4-[(2,6-dioxo-3-piperidyl)amino]-2-fluoro-5-methoxy-phenyl]piperazin-1-yl]cyclohexyl]pyrazol-4-yl]-4-[6-[6-[(6-methoxy-3-pyridyl)methyl]-3,6-diazabicyclo[3.1.1]heptan-3-yl]-3-pyridyl]pyrazolo[1,5-a]pyrazine-3-carbonitrile]",++++ (<50 nM = ++++),< 30,< 50,++++ (<50 nM = ++++),< 30,< 50,–,–,–,–,–,–,–,–,–,–,–,–
"COc1ccc(CN2C3CC2CN(c2ccc(-c4nc(-c5cnn([C@H]6CC[C@@H](N7CCC(c8cc9c(cc8F)c(N8CCC(=O)NC8=O)nn9C)C(F)(F)C7)CC6)c5)cn5ncc(C#N)c45)cn2)C3)cn1 (relative stereo) [Compound 200, 6-(1-((1s, 4s)-4-(4-(3-(2,4-Dioxotetrahydropyrimidin-1(2H)-yl)-5-fluoro-1-methyl-1H-indazol-6-yl)-3,3-difluoropiperidin-1-yl)cyclohexyl)-1H-pyrazol-4-yl)-4-(6-(6-((6-methoxypyridin-3-yl)methyl)-3,6-diazabicyclo[3.1.1]heptan-3-yl)pyridin-3-yl)pyrazolo[1,5-a]pyrazine-3-carbonitrile]",++++ (<50 nM = ++++),< 50,< 50,++++ (<50 nM = ++++),< 30,< 50,–,–,–,–,–,–,–,–,–,–,–,–
